Results taken from US20090131513A1, “ANTI-INFLAMMATORY MODALITIES” (Novogen Research Pty Ltd., priority 2005, published 2009).

Columns and labels:
[1] = tested on: AA-induced ear inflammation; assay: Murine ear inflammation induced by arachidonic acid; assay type: in vivo, mice (BALB/c); details: for Increase in ear thickness (mean ± SD, ×0.01 mm): 25 mg/kg i/p, 1 hr post-AA application
Description: Compounds were examined for their ability to inhibit ear swelling in mice induced by the topical application of arachidonic acid (AA). The inflammatory response due AA, the immediate precursor of the eicosanoids, is due to formation of AA metabolites via both the cyclooxygenase (COX) and lipoxygenase (LOX) pathways (Young et al. 1984). AA induces an increase in both PGE2 and LTC4 synthesis which precedes the increase in ear thickness (Opas et al. 1985; Chang et al. 1986).
Female BALB/c mice (ARC, WA, Australia), weighing 15-21 g were injected with Compound 2 delivered in polyethylene glycol (PEG) 400:phosphate buffered saline (PBS) 1:1 intraperitoneally (i/p) at a dose of 25 mg/kg either 30 min prior to or immediately before the application of AA to the ears. Mice were anaesthetized using isoflurane and baseline thickness of both ears was measured using a spring micrometer. Each mouse received a total of 20 μL of AA in ethanol (50 mg/ml) applied to the inner and outer surfaces of each pinna (i.e. 0.5 mg AA per ear). Mice were anaesthetized again to remeasure the ears at 1 hr post-AA application.
The difference in ear swelling pre- and post-application of AA for each ear was calculated, and the average for the two ears of each mouse calculated. The difference in mean swelling of each test group compared to the group given vehicle alone was calculated using a two-tailed unpaired t test (Prism 4, GraphPad Software).

[2] = tested on: NO synthesis in mouse macrophage cell line RAW 264.7; assay: Inhibition of nitric oxide synthesis (Griess reaction); assay type: cell-based; details: 10 μM
Procedure: Exposure of various cells (e.g. macrophages and smooth muscle cells) to bacterial LPS and proinflammatory cytokines induces iNOS which generates NO. NO production can be indirectly quantified by measurement of nitrite (NO2—), a stable breakdown product of NO. The mouse macrophage cell line RAW 264.7 was cultured in DMEM supplemented with FCS, 2 mM glutamine and 50 U/ml penicillin/streptomycin. Cells were treated with either test compound at 10 μM (in 0.125% DMSO) or vehicle alone, together with 10 ng/ml LPS. After incubation for 24 hrs, culture media was collected and analysed immediately for NO concentration using the Griess reaction (Eigler et al. 1995).

TX synthase (TXS) = molecular target: T1, TX synthase (TXS) (Homo sapiens, UniProt P24557); assay: TXB2 synthesis following addition of exogenous PGH2 to U937 cells; assay type: cell-based; details: 1, 10, 100 μM, undifferentiated U937 cells, PGH2 5 μM
T1 construct: endogenous in cells; host or cells: undifferentiated U937 cells
T1 sequence (P24557 1-533): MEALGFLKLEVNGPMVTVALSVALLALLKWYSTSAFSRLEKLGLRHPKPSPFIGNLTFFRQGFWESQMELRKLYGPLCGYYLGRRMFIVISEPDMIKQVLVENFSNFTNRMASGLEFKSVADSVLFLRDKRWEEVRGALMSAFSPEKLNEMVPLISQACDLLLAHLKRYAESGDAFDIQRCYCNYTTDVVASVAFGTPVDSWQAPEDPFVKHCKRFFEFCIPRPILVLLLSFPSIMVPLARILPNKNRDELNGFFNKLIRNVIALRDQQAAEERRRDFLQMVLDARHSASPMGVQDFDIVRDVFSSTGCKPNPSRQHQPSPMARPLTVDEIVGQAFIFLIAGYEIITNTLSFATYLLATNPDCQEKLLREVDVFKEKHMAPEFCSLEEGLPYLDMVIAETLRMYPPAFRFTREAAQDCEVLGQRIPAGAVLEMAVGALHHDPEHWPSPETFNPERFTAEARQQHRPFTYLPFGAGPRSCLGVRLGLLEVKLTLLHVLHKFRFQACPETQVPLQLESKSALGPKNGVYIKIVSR
Procedure: To examine effects of test compounds directly on TX synthase (TXS), a different assay system was used. Whereas arachidonic acid (AA) is the substrate for COX, PGH2 is the substrate for TX synthase. To examine directly the effect of these compounds on TXS, exogenous ? elow:
Test compounds at 0 μM, 1 μM, 10 μM and 100 μM (in DMSO) were incubated with undifferentiated U937 cells (6×10^6/ml) for 30 min at 37° C., after which PGH2 (5 μM) was added. After incubation for 10 min, the reaction was terminated by centrifugation and the supernatants were collected and TXB2 production was measured in triplicate by RIA. ANOVA followed by Newman-Keuls multiple comparisons test was used to examine differences between doses and the control values. A statistical significance level of 0.05 was used and differences from control values are indicated by an asterisk (*).

DSS-induced colitis = assay: Murine model of DSS-induced colitis; assay type: in vivo, mice (BALB/c); details: for inflammation, in words: Experiment 2, 1 mg/kg for 10 days prior to DSS only; for colonic inflammation, in words: series of experiments, 1.0-1.25 mg/kg single oral dose per day; for maximum mean weight loss: vehicle 5%; for day at which clinical signs became evident: vehicle day 5; for colitis, in words: Experiment 1, 1 mg/kg throughout until day 17; for mean clinical score compared with vehicle, in words: Experiment 1, day 11; for day of switch from mean body weight loss to mean body weight gain: Experiment 1, vehicle day 15
Procedure: Female BALB/c mice, 6-7 weeks old, were housed for a minimum of one week before any experimental work began. To induce colitis, dextran sulphate sodium (DSS—molecular weight 40 kD, TdB Consultancy AB, Uppsala, Sweden (Dieleman et al. 1994), was administered fresh daily in the drinking water at a concentration of 4.5-5% for 5 days (Okayasu et al. 1990), after which water alone was given. This regime induced mild colitis, evidenced by diarrhea and rectal bleeding, the severity of which was scored, as well as a reduction in the length of the colon. Histologically, colonic inflammation was evidenced by ulceration and an infiltration of neutrophils into the mucosa, which was also scored. The systemic effect of the colitis causes weight loss, which was also monitored.
Either vehicle (PEG 400:PBS1:1) Compounds 1 or 4 were administered at a dose rate of 1 mg/kg throughout the experiment until the mice were killed at day 17.
Either Compounds 1 and 2, at a dose of 1 mg/kg or vehicle were administered for 10 days prior to DSS being added to the drinking water to induce colitis, after which test compound was stopped. DSS was administered for 5 days and the mice killed 8 days later (day 23).
Either the cis or the trans isomers of Compound 3 (Compound 3a and 3b respectively) at 1.25 mg/kg or vehicle were administered throughout the experiment until the mice were killed at day 17.

| SMILES | Increase in ear thickness (mean ± SD, ×0.01 mm) [1] [×0.01 mm] | AA-induced ear inflammation / ear thickness compared with vehicle, in words ([1]; mouse, in vivo) | NO synthesis, direction of effect in words [2] | thromboxane synthase inhibition (TXB2 synthesis after exogenous PGH2), selectivity in words (TX synthase (TXS)) | inflammation, in words (DSS-induced colitis) | body weight versus vehicle (DSS-induced colitis; Experiment 2, day 22) | body weight loss associated with DSS-induced colonic inflammation (DSS-induced colitis; Experiment 2, pre-dosed 1 mg/kg for 10 days) | colonic inflammation, in words (DSS-induced colitis) | colon length compared with vehicle (trend), in words (DSS-induced colitis; Experiment 1, 1 mg/kg oral) | mean histology scores, in words (DSS-induced colitis; Experiment 1, 1 mg/kg oral) | maximum mean weight loss (DSS-induced colitis; Experiment 1, 1 mg/kg oral) [%] | day at which clinical signs became evident (DSS-induced colitis; Experiment 1, 1 mg/kg oral) [days] | colitis, in words (DSS-induced colitis) | mean clinical score compared with vehicle, in words (DSS-induced colitis) | day of switch from mean body weight loss to mean body weight gain (DSS-induced colitis) [days] | comparative anti-inflammatory activity between test compounds (DSS-induced colitis; Experiment 1, 1 mg/kg) | ulceration of the colonic epithelium compared with vehicle (DSS-induced colitis; Experiment 1, 1 mg/kg oral) | colon length versus control group not given DSS (DSS-induced colitis; Experiment 2, pre-dosed 1 mg/kg) |
| --- | --- | --- | --- | --- | --- | --- | --- | --- | --- | --- | --- | --- | --- | --- | --- | --- | --- | --- |
| Oc1ccc(C2COc3c(ccc(O)c3O)C2O)cc1 (stereo not shown) [Compound 2] | 6.5 ± 2.9 | significant reduction in ear thickness | induced it | selective thromboxane synthase inhibitors | Inflammation was reduced | weighed significantly more than those receiving vehicle (p=0.0291) | reduced the body weight loss | reduced colonic inflammation |  |  |  |  |  |  |  |  |  |  |
| O=C1c2cc(Cl)c(O)cc2OCC1c1ccc(O)cc1 (stereo not shown) [Compound 4] | 9.2 ± 3.6 |  | induced it | selective thromboxane synthase inhibitors |  |  |  | reduced colonic inflammation | longer | less colitis | 1 | 6 | decreased colitis | significantly lower | 12 |  |  |  |
| O=C1c2ccc(O)c(Br)c2OCC1c1ccc(O)cc1 (stereo not shown) [Compound 1, 3-(4-hydroxyphenyl)-7-hydroxy-8-bromo-chroman-4-one] | 9.5 ± 2.3 |  | inhibited NO synthesis | selective thromboxane synthase inhibitors | Inflammation was reduced |  |  | reduced colonic inflammation | longer | less colitis | 2 | 6 | decreased colitis | significantly lower | 10 | better anti-inflammatory activity | statistically significant (p=0.0135) less ulceration | not statistically different in length from those of the control group |
